# Measured values reported in patent publication US4228162A (priority 1979, dated 1980).
# Columns and labels:
# [1] = Description: The samples were prepared using USP grade aspirin, which was dried at 110° before use. […] Spectrum b was taken after the sample (containing 10% water) was stored at 70° C. for 96 hours.
# rats = assay: Acute Oral Toxicity--Rat; format: in vivo
# Description: An approximate oral LD50 of dimethyl isorbide was determined.
# rabbit eye = assay: Eye Irritation--Rabbit; format: in vivo
# Description: […] was instilled into the conjunctival sac of the rabbit eye. Over a period of several years two different lots of DMI (designated here merely as A or B) were tested at different times and at various concentrations. […] The following classification of degree of irritancy, according to the terminology of […], was made for the various tests on the unwashed eye: The classification of DMI according to specifications provided in the Federal Hazardous Substances Act for the specified test and concentration are shown below: […]
# [2] = tested on: external auditory canal of rabbit ear; assay: Instillation into Rabbit Ear; format: in vivo; conditions: four right rabbit ears, up to 5 days
# Description: DMI was introduced onto the external auditory canal of each of four right rabbit ears. Likewise, four other right rabbit ears were instilled with 0.35 ml of 40% DMI in water.
# human skin = assay: Human Patch Tests; format: in vivo
# Excerpt: Undiluted dimethyl ether of isosorbide has been tested under a closed patch of human subjects in accordance with the […] patch-test procedure originally designed by the dermatologist, B. Schwartz, M.D., and more recently adapted by R. B. Osbourn, M.D.
# [3] = Preliminary toxicity of dimethyl isosorbide
# Excerpt: We use dimethyl isosorbide (DMI) as the vehicle for the liquid formulation of aspirin. […] When used internally, it is predicted that DMI will be metabolized to form isosorbide, a remedy for diuretic purposes. From the chemical structural point of view, it is seen that DMI is practically inert to aspirin degradation.
# rabbit skin [4] = conditions: in vivo
# Description: (§1) Groups of four albino rabbits were given dosages of 1.00, 2.15, 4.64 and 10.0 ml per kg, respectively.
# rabbit skin [5] = conditions: in vivo; remark: listed apart in the source
# rabbit skin [6] = assay: Acute Percutaneous Toxicity--Rabbit
# Description: as §1
structure (smiles),measurement,setting,value
"CO[C@H]1CO[C@H]2[C@@H]1OC[C@H]2OC [Dimethyl isosorbide, dimethyl isosorbide]",chemical interaction with aspirin / induction of aspirin degradation,[1],"does not interact chemically with aspirin, not does it induce the degradation of aspirin"
same,Signs of intoxication,rats,"depression, lacrimation, labored respiration, tachcardia and ataxia"
same,classification for acute oral toxicities (Hodge and Sterner),rats,practically nontoxic
same,examination of the tissues of the animals that died,rats; 6.81 and 10.0 ml/kg,"hyperemic lungs, slight irritation of the small intestine and congestion of kidneys and adrenals"
same,mortality,rats; 6.81 and 10.0 ml/kg,all of the 10 rats given the two higher dosages died
same,Class. as Irritating Code of Federal Regulations,"rabbit eye; 40%, lot A, test 1",Negative
same,No. of Eyes Positive / No. of Eyes Tested CFR,"rabbit eye; 40%, lot A, test 1",0/6
same,Average Score (out of potential 100),"rabbit eye; 40%, lot A, test 1, 3 eyes, washed 2 sec., 1 hour",0.0
same,Average Score (out of potential 100),"rabbit eye; 40%, lot A, test 1, 3 eyes, washed 2 sec., 24 hours",0.0
same,Average Score (out of potential 100),"rabbit eye; 40%, lot A, test 1, 3 eyes, washed 2 sec., 48 hours",0.0
same,Average Score (out of potential 100),"rabbit eye; 40%, lot A, test 1, 3 eyes, washed 2 sec., 72 hours",0.0
same,Average Score (out of potential 100),"rabbit eye; 40%, lot A, test 1, 3 eyes, washed 2 sec., 96 hours",0.0
same,Average Score (out of potential 100),"rabbit eye; 40%, lot A, test 1, 3 eyes, washed 2 sec., 7 days",0.0
same,Average Score (out of potential 100),"rabbit eye; 40%, lot A, test 1, 6 eyes, unwashed, 1 hour",0.0
same,Average Score (out of potential 100),"rabbit eye; 40%, lot A, test 1, 6 eyes, unwashed, 24 hours",0.0
same,Average Score (out of potential 100),"rabbit eye; 40%, lot A, test 1, 6 eyes, unwashed, 48 hours",0.0
same,Average Score (out of potential 100),"rabbit eye; 40%, lot A, test 1, 6 eyes, unwashed, 72 hours",0.0
same,Average Score (out of potential 100),"rabbit eye; 40%, lot A, test 1, 6 eyes, unwashed, 96 hours",0.0
same,Average Score (out of potential 100),"rabbit eye; 40%, lot A, test 1, 6 eyes, unwashed, 7 days",0.0
same,Classification (Kay and Calandra),"rabbit eye; 40%, lot A, test 1, unwashed eye",Nonirritating
same,Class. as Irritating Code of Federal Regulations,"rabbit eye; 60%, lot A, test 1",Negative
same,No. of Eyes Positive / No. of Eyes Tested CFR,"rabbit eye; 60%, lot A, test 1",0/6
same,Average Score (out of potential 100),"rabbit eye; 60%, lot A, test 1, 3 eyes, washed 2 sec., 1 hour",0.0
same,Average Score (out of potential 100),"rabbit eye; 60%, lot A, test 1, 3 eyes, washed 2 sec., 24 hours",0.0
same,Average Score (out of potential 100),"rabbit eye; 60%, lot A, test 1, 3 eyes, washed 2 sec., 48 hours",0.0
same,Average Score (out of potential 100),"rabbit eye; 60%, lot A, test 1, 3 eyes, washed 2 sec., 72 hours",0.0
same,Average Score (out of potential 100),"rabbit eye; 60%, lot A, test 1, 3 eyes, washed 2 sec., 96 hours",0.0
same,Average Score (out of potential 100),"rabbit eye; 60%, lot A, test 1, 3 eyes, washed 2 sec., 7 days",0.0
same,Average Score (out of potential 100),"rabbit eye; 60%, lot A, test 1, 6 eyes, unwashed, 1 hour",0.0
same,Average Score (out of potential 100),"rabbit eye; 60%, lot A, test 1, 6 eyes, unwashed, 24 hours",0.0
same,Average Score (out of potential 100),"rabbit eye; 60%, lot A, test 1, 6 eyes, unwashed, 48 hours",0.0
same,Average Score (out of potential 100),"rabbit eye; 60%, lot A, test 1, 6 eyes, unwashed, 72 hours",0.0
same,Average Score (out of potential 100),"rabbit eye; 60%, lot A, test 1, 6 eyes, unwashed, 96 hours",0.0
same,Average Score (out of potential 100),"rabbit eye; 60%, lot A, test 1, 6 eyes, unwashed, 7 days",0.0
same,Classification (Kay and Calandra),"rabbit eye; 60%, lot A, test 1, unwashed eye",Nonirritating
same,Class. as Irritating Code of Federal Regulations,"rabbit eye; 80%, lot A, test 1",Negative
same,No. of Eyes Positive / No. of Eyes Tested CFR,"rabbit eye; 80%, lot A, test 1",0/6
same,Average Score (out of potential 100),"rabbit eye; 80%, lot A, test 1, 3 eyes, washed 2 sec., 1 hour",0.0
same,Average Score (out of potential 100),"rabbit eye; 80%, lot A, test 1, 3 eyes, washed 2 sec., 24 hours",0.0
same,Average Score (out of potential 100),"rabbit eye; 80%, lot A, test 1, 3 eyes, washed 2 sec., 48 hours",0.0
same,Average Score (out of potential 100),"rabbit eye; 80%, lot A, test 1, 3 eyes, washed 2 sec., 72 hours",0.0
same,Average Score (out of potential 100),"rabbit eye; 80%, lot A, test 1, 3 eyes, washed 2 sec., 96 hours",0.0
same,Average Score (out of potential 100),"rabbit eye; 80%, lot A, test 1, 3 eyes, washed 2 sec., 7 days",0.0
same,Average Score (out of potential 100),"rabbit eye; 80%, lot A, test 1, 6 eyes, unwashed, 1 hour",0.0
same,Average Score (out of potential 100),"rabbit eye; 80%, lot A, test 1, 6 eyes, unwashed, 24 hours",0.0
same,Average Score (out of potential 100),"rabbit eye; 80%, lot A, test 1, 6 eyes, unwashed, 48 hours",0.0
same,Average Score (out of potential 100),"rabbit eye; 80%, lot A, test 1, 6 eyes, unwashed, 72 hours",0.0
same,Average Score (out of potential 100),"rabbit eye; 80%, lot A, test 1, 6 eyes, unwashed, 96 hours",0.0
same,Average Score (out of potential 100),"rabbit eye; 80%, lot A, test 1, 6 eyes, unwashed, 7 days",0.0
same,Classification (Kay and Calandra),"rabbit eye; 80%, lot A, test 1, unwashed eye",Nonirritating
same,Class. as Irritating Code of Federal Regulations,"rabbit eye; 100%, lot A, test 1",Positive
same,No. of Eyes Positive / No. of Eyes Tested CFR,"rabbit eye; 100%, lot A, test 1",4/6
same,Average Score (out of potential 100),"rabbit eye; 100%, lot A, test 1, 3 eyes, washed 2 sec., 1 hour",0.0
same,Average Score (out of potential 100),"rabbit eye; 100%, lot A, test 1, 3 eyes, washed 2 sec., 24 hours",0.0
same,Average Score (out of potential 100),"rabbit eye; 100%, lot A, test 1, 3 eyes, washed 2 sec., 48 hours",0.0
same,Average Score (out of potential 100),"rabbit eye; 100%, lot A, test 1, 3 eyes, washed 2 sec., 72 hours",0.0
same,Average Score (out of potential 100),"rabbit eye; 100%, lot A, test 1, 3 eyes, washed 2 sec., 96 hours",0.0
same,Average Score (out of potential 100),"rabbit eye; 100%, lot A, test 1, 3 eyes, washed 2 sec., 7 days",0.0
same,Average Score (out of potential 100),"rabbit eye; 100%, lot A, test 1, 6 eyes, unwashed, 1 hour",0.0
same,Average Score (out of potential 100),"rabbit eye; 100%, lot A, test 1, 6 eyes, unwashed, 24 hours",15.0
same,Average Score (out of potential 100),"rabbit eye; 100%, lot A, test 1, 6 eyes, unwashed, 48 hours",10.3
same,Average Score (out of potential 100),"rabbit eye; 100%, lot A, test 1, 6 eyes, unwashed, 72 hours",10.0
same,Average Score (out of potential 100),"rabbit eye; 100%, lot A, test 1, 6 eyes, unwashed, 96 hours",10.0
same,Average Score (out of potential 100),"rabbit eye; 100%, lot A, test 1, 6 eyes, unwashed, 7 days",10.0
same,score of one eye (zero),"rabbit eye; 100%, lot A, test 1, unwashed",zero
same,Classification (Kay and Calandra),"rabbit eye; 100%, lot A, test 1, unwashed eye",Cannot be classified
same,maximum score of other eyes,"rabbit eye; 100%, lot A, test 1, unwashed, no other eye greater at any reading",≤ 14
same,score of one eye,"rabbit eye; 100%, lot A, test 1, unwashed, consistent score",60-64
same,Class. as Irritating Code of Federal Regulations,"rabbit eye; 100%, lot A, test 2",Negative
same,No. of Eyes Positive / No. of Eyes Tested CFR,"rabbit eye; 100%, lot A, test 2",0/6
same,Average Score (out of potential 100),"rabbit eye; 100%, lot A, test 2, 3 eyes, washed 2 sec., 1 hour",0.0
same,Average Score (out of potential 100),"rabbit eye; 100%, lot A, test 2, 3 eyes, washed 2 sec., 24 hours",0.0
same,Average Score (out of potential 100),"rabbit eye; 100%, lot A, test 2, 3 eyes, washed 2 sec., 48 hours",0.0
same,Average Score (out of potential 100),"rabbit eye; 100%, lot A, test 2, 3 eyes, washed 2 sec., 72 hours",0.0
same,Average Score (out of potential 100),"rabbit eye; 100%, lot A, test 2, 3 eyes, washed 2 sec., 96 hours",0.0
same,Average Score (out of potential 100),"rabbit eye; 100%, lot A, test 2, 3 eyes, washed 2 sec., 7 days",0.0
same,Average Score (out of potential 100),"rabbit eye; 100%, lot A, test 2, 6 eyes, unwashed, 1 hour",0.0
same,Average Score (out of potential 100),"rabbit eye; 100%, lot A, test 2, 6 eyes, unwashed, 24 hours",0.0
same,Average Score (out of potential 100),"rabbit eye; 100%, lot A, test 2, 6 eyes, unwashed, 48 hours",0.0
same,Average Score (out of potential 100),"rabbit eye; 100%, lot A, test 2, 6 eyes, unwashed, 72 hours",0.0
same,Average Score (out of potential 100),"rabbit eye; 100%, lot A, test 2, 6 eyes, unwashed, 96 hours",0.0
same,Average Score (out of potential 100),"rabbit eye; 100%, lot A, test 2, 6 eyes, unwashed, 7 days",0.0
same,Classification (Kay and Calandra),"rabbit eye; 100%, lot A, test 2, unwashed eye",Nonirritating
same,Class. as Irritating Code of Federal Regulations,"rabbit eye; 100%, lot B, test 1",Negative
same,No. of Eyes Positive / No. of Eyes Tested CFR,"rabbit eye; 100%, lot B, test 1",0/6
same,Average Score (out of potential 100),"rabbit eye; 100%, lot B, test 1, 3 eyes, washed 2 sec., 1 hour",2.7
same,Average Score (out of potential 100),"rabbit eye; 100%, lot B, test 1, 3 eyes, washed 2 sec., 24 hours",18.0
same,Average Score (out of potential 100),"rabbit eye; 100%, lot B, test 1, 3 eyes, washed 2 sec., 48 hours",17.3
same,Average Score (out of potential 100),"rabbit eye; 100%, lot B, test 1, 3 eyes, washed 2 sec., 72 hours",9.4
same,Average Score (out of potential 100),"rabbit eye; 100%, lot B, test 1, 3 eyes, washed 2 sec., 96 hours",8.7
same,Average Score (out of potential 100),"rabbit eye; 100%, lot B, test 1, 3 eyes, washed 2 sec., 7 days",0.0
same,Average Score (out of potential 100),"rabbit eye; 100%, lot B, test 1, 6 eyes, unwashed, 1 hour",3.7
same,Average Score (out of potential 100),"rabbit eye; 100%, lot B, test 1, 6 eyes, unwashed, 24 hours",11.3
same,Average Score (out of potential 100),"rabbit eye; 100%, lot B, test 1, 6 eyes, unwashed, 48 hours",5.6
same,Average Score (out of potential 100),"rabbit eye; 100%, lot B, test 1, 6 eyes, unwashed, 72 hours",5.0
same,Average Score (out of potential 100),"rabbit eye; 100%, lot B, test 1, 6 eyes, unwashed, 96 hours",5.0
same,Average Score (out of potential 100),"rabbit eye; 100%, lot B, test 1, 6 eyes, unwashed, 7 days",4.6
same,score of one other eye (zero),"rabbit eye; 100%, lot B, test 1, unwashed",zero
same,Classification (Kay and Calandra),"rabbit eye; 100%, lot B, test 1, unwashed eye",Mildly irritating
same,score of one eye,"rabbit eye; 100%, lot B, test 1, unwashed, consistently",28-30
same,variability in response of individual rabbit eyes,rabbit eye; undiluted,considerable variability in the response of individual rabbit eyes
same,irritation to the integument of the external auditory canal,[2]; 0.35 ml of 40% DMI in water,No irritation to the integument of the external auditory canal was observed
same,irritation to the integument of the external auditory canal,[2]; DMI,No irritation to the integument of the external auditory canal was observed
same,"No. of Reactors/No. of Subj. Tested, 1st Appl.","human skin; 100%, closed patch",0/200
same,"No. of Reactors/No. of Subj. Tested, Both Appl.","human skin; 100%, closed patch",2/200
same,grade of reaction of the two reactors,"human skin; second application only, two subjects",questionable (1) reaction
same,retest of the two reactors,"human skin; semiclosed patch, another site, 48 hours later",both were negative 48 hours
same,primary irritant / skin sensitizer conclusion,"human skin; undiluted, human skin",neither a primary irritant to the human skin nor a skin sensitizer
same,toxicity (preliminary studies),[3],practically nontoxic
same,erythema,rabbit skin [4],transitory mild to moderate erythema
same,gross pathological findings,rabbit skin [4],No gross pathological findings
same,individual score of single positive reading,rabbit skin [5],1.0
same,score (edema or erythema),rabbit skin [5],No score (edema or erythema) was obtained on any of the rabbits
same,survival,"rabbit skin [6]; undiluted, 1.00, 2.15, 4.64 and 10.0 ml per kg",All rabbits survived
same,acute percutaneous toxicity,"rabbit skin [6]; undiluted, rabbit skin under rubber dental dam, 24 hours",greater than 10 ml per kg of body weight
